Results on one molecule are retold here after paper PMC11881437 (Molecular Medicine, 2025).

For data set [1], the system named is OCT4, NANOG and SOX2. In words: Western blot of stemness factors in sorted CD44+/CD133+ cells. Format: cell-based, human. As to conditions: 24 h, compared to 5FU treated group. An excerpt: CD44^+/CD133^+ cells were isolated using MACS LS column (Miltenyi Biotec, USA) after leveled with CD44 and CD133 antibody conjugated with microbeads (Miltenyi Biotec, USA) by following manufacture’s protocol and subjected to further analysis. Cells expressing both CD44 and CD133 were isolated using magnetic cell sorter (MACS) (Guerriero et al. [2017]).
Protein samples were extracted from treated and untreated cells and subjected to western blot analysis by standard protocol (Bhowmik et al. [2013]). Cells were incubated with Brefeldin A (10 µg/ml) for 4 h before harvesting to determine VEGFA expression. Briefly, cells were lysed with RIPA buffer [50 mmol/L Tris–HCl (pH 7.8), 150 mmol/L NaCl, 1% Triton X-100, 0.1% SDS, 0.5% sodium deoxycholate, and 1 mmol/L EDTA] containing complete protease inhibitor cocktail. Equal amount of protein was electrophoresed on SDS-PAGE and electro transferred onto polyvinylidene difluoride (PVDF) membranes using Bio-Rad mini gel apparatus. […] Signals were detected with the ECL system (Promega, USA) and images were captured in iBright™ CL1500 Imaging System.
A general note: A western blot detects proteins with antibodies after separation by electrophoresis.

On the set-up of data set [2]: method as in Tan et al. [2013]; Chagas et al. [2020]; Zhang et al. [2007]. As to conditions: ref Tan et al. [2013]; Chagas et al. [2020]; Zhang et al. [2007]; cited from earlier work.

As for `O=c1cc(-c2ccc(O)c(O)c2)oc2c([C@@H]3O[C@H](CO)[C@@H](O)[C@H](O)[C@H]3O)c(O)cc(O)c12` [Orientin], the “protein expression of OCT4, NANOG and SOX2” value in data set [1] is on record as “downregulated”. Moreover, in data set [2], the excretion entry is listed as “excreted primarily through urine”, the metabolism entry was “hepatic metabolism via CYP450 enzymes” and the tissue distribution entry is recorded as “widely distributed in different tissues”.
